One test addresses T1, RUP3 (Homo sapiens, UniProt Q8TDV5).
T1 construct: read from the listing, own knowledge; expressed in transfected cells; host or cells: melanophores, electroporated with the RUP3 expression vector (pCMV)
T1 sequence (Q8TDV5 with tags, fused parts or gaps): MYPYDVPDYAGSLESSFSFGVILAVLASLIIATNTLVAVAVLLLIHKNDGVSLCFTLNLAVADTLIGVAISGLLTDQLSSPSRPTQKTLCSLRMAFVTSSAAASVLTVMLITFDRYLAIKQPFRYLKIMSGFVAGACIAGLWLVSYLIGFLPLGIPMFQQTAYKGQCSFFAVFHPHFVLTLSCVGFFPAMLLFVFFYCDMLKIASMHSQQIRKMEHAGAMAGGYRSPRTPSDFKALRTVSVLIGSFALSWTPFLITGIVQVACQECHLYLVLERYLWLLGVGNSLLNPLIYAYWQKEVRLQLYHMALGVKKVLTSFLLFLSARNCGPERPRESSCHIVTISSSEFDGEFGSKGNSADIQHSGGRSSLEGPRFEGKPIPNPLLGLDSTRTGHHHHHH
Nature of the test: RUP3 dose responses in melanophores. The test is classed as cell-based. The note with it: melanophores transfected with RUP3 expression vector. As for the experimental part:
Protocol for RUP3 Dose Responses in Melanophores
Melanophores are maintained in culture as reported by Potenza, M. N. and Lerner, M. R., in Pigment Cell Research, Vol. 5, 372-378, 1992 and transfected with the RUP3 expression vector (pCMV) using electroporation. Following electroporation, the transfected cells are plated into 96 well plates for the assay. The cells are then allowed to grow for 48 hours in order to both recover from the electroporation procedure and attain maximal receptor expression levels.
On the assay day, the growth medium on the cells is replaced with serum-free buffer containing 10 nM melatonin. The melatonin acts via an endogenous Gi-coupled GPCR in the melanophores to lower intracellular cAMP levels. In response to lowered cAMP levels, the melanophores translocate their pigment to the center of the cell. The net effect of this is a significant decrease in the absorbance reading of the cell monolayer in the well, measured at […].
After a 1-hour incubation in melatonin, the cells become completely pigment-aggregated. At this point a baseline absorbance reading is collected. Serial dilutions of test compounds are then added to the plate and compounds that stimulate RUP3 produce increases in intracellular cAMP levels. In response to these increased cAMP levels, the melanophores translocate their pigment back into the cell periphery. After one hour, stimulated cells are fully pigment-dispersed. The cell monolayer in the dispersed state absorbs much more light in the 600-650 nm range. The measured increase in absorbance compared to the baseline reading allows one to quantitate the degree of receptor stimulation and plot a dose-response curve.
The compounds in the above examples were screened using the melanophore assay.

The next test deals with Male Sprague Dawley rats. Nature of the test: Oral glucose tolerance test (oGTT) in rats. The test is classed as in vivo. The note with it: rat, p.o.; for Mean % inhibition of glucose excursion: dextrose 2 g/kg, mean of six animals; for Effect on blood glucose after challenge with glucose: result in words. As for the experimental part: In Vivo Effects of RUP3 Agonists on Glucose Homeostasis in Rats
A. Oral Glucose Tolerance Test (oGTT)
Male Sprague Dawley rats weighing approximately 200 g-250 g were fasted for 15 hours and randomly grouped (n=6) to receive a RUP3 agonist (Compounds A194, A214 or D4) at 3, 10 or 30 mg/kg. Compounds were delivered orally via a gavage needle (p.o., volume 3 mL/kg). At time 0, levels of blood glucose were assessed using a glucometer (Elite XL, Bayer), and rats were administered either vehicle (20% hydroxypropyl-beta-cyclodextrin) or test compound. Thirty minutes after administration of test compound, levels of blood glucose were again assessed, and rats were administered dextrose orally at a dose of 2 g/kg. Blood glucose measurements were then taken 30 min, 60 min, and 120 min after this time.

Usually EC50 stands for the concentration at which the effect is half-maximal. Take `CC(C)OC(=O)N1CCC(Oc2ncnc3c2cnn3-c2ccc(S(C)(=O)=O)cc2)CC1` [Compound A5, 4-[1-(4-Methanesulfonyl-phenyl)-1H-pyrazolo[3,4-d]pyrimidin-4-yloxy]-piperidine-1-carboxylic acid isopropyl ester]: a half-maximal response on RUP3 (EC50) required 12.7 nM.
For `CC(C)Oc1ccc(C(=O)N2CCC(Oc3ncnc4c3cnn4-c3ccc(S(C)(=O)=O)cc3F)CC2)nc1` [Compound A194, {4-[1-(2-Fluoro-4-methanesulfonyl-phenyl)-1H-pyrazolo[3,4-d]pyrimidin-4-yloxy]-piperidin-1-yl}-(5-isopropoxy-pyridin-2-yl)-methanone], the “Mean % inhibition of glucose excursion” value in the test on Male Sprague Dawley rats (dose 30 mg/kg) was 15%, (30). Besides, in the test with Male Sprague Dawley rats, the “Effect on blood glucose after challenge with glucose” value (“Effect on blood glucose” for short) is on record as “lowered blood glucose after challenge with glucose”.
As for `CC(C)OC(=O)N1CCC(Sc2ncnc3c2cnn3-c2ccc(S(C)(=O)=O)cc2F)CC1` [Compound A214, 4-[-(2-Fluoro-4-methanesulfonyl-phenyl)-1H-pyrazolo[3,4-d]-pyrimidin-4-ylsulfanyl]-piperidine-1-carboxylic acid isopropyl ester], in the test on Male Sprague Dawley rats (dose 10 mg/kg), the “Mean % inhibition of glucose excursion” value is given as 33%, (10). The “Effect on blood glucose” value with Male Sprague Dawley rats is “lowered blood glucose after challenge with glucose”.
On RUP3, `CC(C)(C)OC(=O)N1CCC(Oc2ncnc3c2ncn3-c2ccc(S(C)(=O)=O)nc2)CC1` [Compound B5, 4-[9-(6-Methanesulfonyl-pyridin-3-yl)-9H-purin-6-yloxy]-piperidine-1-carboxylic acid tert-butyl ester] showed a 50% effective concentration (EC50) of 59.1 nM.
For the molecule `CC(C)(C)OC(=O)N1CCC(Oc2ncnc3c2nnn3-c2ccc(S(C)(=O)=O)cc2)CC1` [Compound C1, 4-[3-(4-Methanesulfonyl-phenyl)-3H-[1,2,3]triazolo[4,5-d]pyrimidin-7-yloxy]-piperidine-1-carboxylic acid tert-butyl ester], the EC50 on RUP3 is 13 nM.
As to `CC(C)OC(=O)N1CCC(Oc2ncnc3c(-c4ccc(S(C)(=O)=O)cc4)noc23)CC1` [Compound D4, 4-[3-(4-methanesulfonyl-phenyl)-isoxazolo[4,5-d]pyrimidin-7-yloxy]-piperidine-1-carboxylic acid isopropyl ester], the “Mean % inhibition of glucose excursion” value with Male Sprague Dawley rats (dose 30 mg/kg) is given as 12%, (30). Besides, the “Effect on blood glucose” value with Male Sprague Dawley rats is “lowered blood glucose after challenge with glucose”.
